# From publication PMC6060375 (Drug Delivery, 2018)
# Columns and labels:
# [1] = Tissue distribution of TA in tumor-bearing nude mice (GC-MS/MS); format: in vivo; settings: BALB/c nude, mouse, spleen, intravenous; TA measured after treatment of nude mice with mPEG2K-SA-TA; dose group not stated; read-out: tissue exposure to TA in spleen
# Protocol: In order to better support the anti-tumor evaluation and following histological assay, the harvested tissues were prepared as abovementioned method to monitor the amount of TA by GC–MS/MS in these tissues, including heart, liver, spleen, lung, kidney and tumor.
# [2] = Pharmacokinetics of TA in rats after i.v. administration; format: in vivo, Sprague–Dawley (SD) rats; settings: both sexes, Sprague-Dawley, rat, plasma, iv, total TA, 3 mg/kg TA equivalent
# Protocol: Sprague–Dawley (SD) rats (male and female, 300 ± 30 g) were purchased from SIPPR/BK Experimental Animal Co., Ltd (Shanghai, China). All animals were kept in a humanized environment, with the temperature maintained at 20 ± 2 °C and relative humidity at 50 ± 10%. All the animal procedures were performed following the approved protocol. SD rats were randomly divided into different groups (n = 4 in each group). Rats from different groups were intravenously (i.v.) administrated with TA solution, PEGylated TA solution mPEG2K-SA-TA, respectively. At the designated time points, the blood samples were collected into polyethylene tubes containing EDTA at 0, 0.083, 0.167, 0.5, 0.75, 1, 2, 4, 8, 12, 24, 36 and 48 h and then centrifuged at 12,000 rpm for 5 min to obtain plasma. The plasma samples were stored at −80 °C till analysis. The harvested plasma samples were prepared by sample direct saponification or extraction and analyzed by GC–MS/MS (Wang et al., [2015]). […]
# The pharmacokinetic parameters were calculated by a noncompartmental analysis using WinNonlin (Version 6.4; Pharsight, Mountain View, CA, USA). […] The systemic exposure to TA (area under the plasma concentration versus time profile from the dosing time to the terminal sampling time, AUC0−t) was calculated by trapezoidal rule. […]
compound,measurement,setting,value
"CCCCCCCCCCCCCCCCCCCCCCCCCCCCCCO [TA, Triacontanol]",concentration at 21 days,[1],4170 ng/g
same,half-life,[2]; read-out: elimination half-life (t1/2) (converted),2.57 h
same,MRT,[2]; read-out: mean residence time,2.95 h
